Data reported in patent US10544113B2 (priority 2016, dated 2020).
Like-named read-outs stand apart in the source and are kept apart here.

Key:
B6 mice = assay: Tail-flick test; type: in vivo, mouse; design: key to Activity of tail-flick test: ++: 25 mg/kg (intravenous) or 50 nmol (intrathecal) active; +: 100 mg/kg (intravenous) active; conditions: mice; compound given intravenous or intrathecal
Experimental: In an exemplary in vivo method, a test compound and a MOR antagonist are injected into a mouse pain model (for example, intravenous but not limited), basal latencies are recorded before the treatment and test latencies are recorded at various specified times after the injection, and a time-response curve is recorded and AUC values are calculated to determine whether an analgesic effect is exerted on the mouse. The test compound is confirmed to be an antagonist-to-agonist allosteric modifier of the MOR upon observation of an analgesic effect.
Male wild-type (WT) B6 mice (25-30 g) were kept in a temperature-controlled animal room with a 12-h light/dark cycle. The protocol has been approved by the Institutional Animal Care and Use Committee of the National Health Research Institutes, Taiwan. Animal experiments were carried out in accordance with the Policies on the Use of Animals in Neuroscience Research and the ethical guidelines for investigations of experimental pain in conscious animals, International Association for the Study of Pain. Tail-Flick Analgesia Meter (Columbia Instruments) was used to measure the tail-flick latencies of mice. The cut-off time for each measurement was 10 s to avoid tissue damage. Basal latencies were recorded before treatment and test latencies were recorded 30, 60, 90, 120 and 180 min after an intravenous injection of drugs. […] ED50 values were determined by the up-and-down method reported in Crocker et al., Pharmacol Biochem Behav, 1984, 21, 133-136.
An in vivo study, i.e., tail-flick test, was performed to investigate whether AAMs could change innate character of μ-opioid receptor in the presence of naloxone. […] In mice injected with naloxone (10 mg/kg; s.c.), the ED50 value of compound 58 in inhibition of the tail-flick response was determined to be 23.1±7.1 nmole.

DOR = assay: cAMP assay (adenylyl cyclase inhibition) in HEK-DOR cells; type: cell-based
Experimental: Human embryonic kidney 293 (HEK-293) cells constitutively expressing MOR (HEK-MOR) and DOR (HEK-DOR) (kindly provided by Dr. Ping-Yee Law, University of Minnesota, USA) were cultured in high-glucose Dulbecco's modified Eagle's medium (DMEM, GIBCO) supplemented with 400 μg/mL G418 (Sigma), 2 mM L-glutamine and P/S/F (100 units/mL penicillin, 100 μg/mL streptomycin, 10% fetal bovine serum). Chinese hamster ovary (CHO)-K1 cells, stably expressing hMOR and Gα15 (CHO-K1/MOR/Gα15), were cultured in F12 medium (GIBCO) supplemented with 10 μg/mL Hygromycin B (Invivogen), 20 μg/mL Zeocin (Invivogen) P/S/F (100 units/mL penicillin, 100 μg/mL streptomycin, 10% fetal bovine serum). The cultures were incubated at 37° C. in a humidified 5% CO2 incubator.
Briefly, 2000 HEK-MOR cells or HEK-DOR cells were plated in 10 μL/well of DMEM in 96-well solid bottom white plates and 10 μL/well compound in HBSS in the presence with 1 μM forskolin and 100 μM 3-isobutyl-1-methylxanthine (IBMX). After 30 minutes of incubation at room temperature, 10 μL/well of labeled d2-cAMP and 10 μL/well of anti-cAMP antibody (both diluted in lysis buffer) were added to each well. Two hours later, plates were measured using the FlexStationIII (Molecular Devices Corp.) with excitation at 330 nm and emissions of 620 nm and 665 nm.
To characterize of novel opioid receptor AAMs, the activity and selectivity of compound 58 were tested by inhibiting adenylyl cyclase activity (i.e., cAMP assay).
Opoid receptors inhibit adenylyl cyclase activity through Gi/o family of heterotrimeric G proteins. A cAMP-accumulation assay was performed to determine whether opioid receptor AAMs affect a G protein-dependent signaling pathway.

mu-opioid receptor (MOR) = mu-opioid receptor (MOR) (Homo sapiens (Human), UniProt P35372); assay: cell-based; conditions: combined with a MOR antagonist; for AUC: AUC of [Ca2+]i fluorescence, CHO-K1/MOR/Gα15 cells
mu-opioid receptor (MOR), sequence (P35372 whole entry): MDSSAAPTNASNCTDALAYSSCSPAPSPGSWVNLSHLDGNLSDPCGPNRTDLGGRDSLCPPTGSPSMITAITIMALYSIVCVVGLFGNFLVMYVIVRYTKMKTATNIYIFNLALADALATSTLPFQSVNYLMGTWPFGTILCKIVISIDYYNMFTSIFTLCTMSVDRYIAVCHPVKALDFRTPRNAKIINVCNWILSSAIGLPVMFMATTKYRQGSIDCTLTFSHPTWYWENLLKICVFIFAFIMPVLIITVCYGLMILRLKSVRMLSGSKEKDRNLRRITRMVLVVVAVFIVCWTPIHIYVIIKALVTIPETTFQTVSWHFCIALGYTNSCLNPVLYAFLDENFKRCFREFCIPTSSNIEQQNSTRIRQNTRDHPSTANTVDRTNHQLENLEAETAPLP

Compound	EC50 (mu-opioid receptor (MOR); EC50, CHO-K1/MOR/Gα15 cells)	FLIPR Ca^2+ AUC (mu-opioid receptor (MOR))	EC50 (mu-opioid receptor (MOR); read-out: FLIPR Ca^2+ EC50)	other results
N-Cyclobutyl-4-[2-(4-fluorophenyl)-4-oxo-1, 3-thiazolidin-3-yl]-3-methylbenzamide [Example 255]				Activity of tail-flick test (B6 mice): +
[D-Pen(2),D-Pen(5)]-enkephalin [DPDPE]				cAMP-inhibition response (DOR; % of forskolin-stimulated (1 μM) cAMP accumulation): 60%; EC50 (DOR; agonist alone): 0.0005 µM
Cc1cc(C2SCC(=O)N2c2ccc(C(=O)O)cc2C)ccc1F (stereo not drawn) [Example 68]	< 10 µM	7951	6.4 µM	AUC (mu-opioid receptor (MOR)): more than 5000
CCCCS(=O)(=O)NC(=O)c1ccc(N2C(=O)CSC2c2ccc(F)cc2)c(C)c1 (stereo not drawn) [Example 163]	< 10 µM	11389	1.2 µM	AUC (mu-opioid receptor (MOR)): more than 5000
COC(=O)c1ccc(N2C(=O)CSC2c2ccoc2)c(C)c1 (stereo not drawn) [Example 416]		6514	11.7 µM	AUC (mu-opioid receptor (MOR)): more than 5000
COCC(C)OC(=O)c1ccc(N2C(=O)CSC2c2ccc(F)cc2)c(C)c1 (stereo not drawn) [Example 279]		10883	4.1 µM	
CSCCOC(=O)c1ccc(N2C(=O)CSC2c2ccc(F)cc2)c(C)c1 (stereo not drawn) [Example 270]	< 10 µM			
Cc1cc(C(=O)NS(=O)(=O)Cc2ccccc2)ccc1N1C(=O)CSC1c1ccc(F)cc1 (stereo not drawn) [Example 176]		10601	2 µM	
Cc1cc(C(=O)NCCc2ccc(Cl)cc2)ccc1N1C(=O)CSC1c1ccc(F)cc1 (stereo not drawn) [Example 388]		2951	2 µM	
Cc1cc(C(=O)OCCN2CCCCC2)ccc1N1C(=O)CSC1c1ccc(F)cc1 (stereo not drawn) [Example 295]		10426	2.8 µM	
Cc1cc(C(=O)OCCN(C)C)ccc1N1C(=O)CSC1c1ccc(F)cc1 (stereo not drawn) [Example 290]		14778	10 µM	
Cc1c(N2C(=O)CSC2c2ccc(F)cc2)c(=O)n(-c2ccccc2)n1C (stereo not drawn) [Example 411]		8099	20 µM	AUC (mu-opioid receptor (MOR)): more than 5000
Cc1cc(C(=O)NOCc2ccccc2)ccc1N1C(=O)CSC1c1ccc(F)cc1 (stereo not drawn) [Example 217]		9543	4.1 µM	
Cc1cc(C(=O)OCCOCCN(C)C)ccc1N1C(=O)CSC1c1ccc(F)cc1 (stereo not drawn) [Example 306]	< 10 µM	7531	6.2 µM	AUC (mu-opioid receptor (MOR)): more than 5000
Cc1cc(C(=O)OC2(C)CC2)ccc1N1C(=O)CSC1c1ccc(F)cc1 (stereo not drawn) [Example 236]		13348	4.7 µM	
COc1ccc(N2C(=O)CSC2c2ccc(F)cc2)c(OC)c1 (stereo not drawn) [Example 8, 3-(2,4-Dimethoxyphenyl)-2-(4-fluorophenyl)thiazolidin-4-one]	< 10 µM			
Cc1cc(C(=O)OC(C)(C)C)ccc1N1C(=O)CSC1c1ccc(F)cc1 (stereo not drawn) [Example 235]		15203	6.8 µM	
N#Cc1ccc(N2C(=O)CSC2c2ccc(F)cc2)cc1 (stereo not drawn) [Example 37]	< 10 µM			
Cc1ccc(F)cc1N1C(=O)CSC1c1ccc(Cl)c(F)c1 (stereo not drawn) [Example 123]		4228	0.5 µM	
Cc1cc(C(=O)OC(C)C)ccc1N1C(=O)CSC1c1ccc(F)cc1 (stereo not drawn) [Example 231]	< 10 µM			
Cc1cc(C(=O)N2CC(O)C2)ccc1N1C(=O)CSC1c1ccc(F)cc1 (stereo not drawn) [Example 354]		14863	3.6 µM	
CCNC(=O)c1ccc(N2C(=O)CSC2c2ccc(F)cc2)c(C)c1 (stereo not drawn) [Example 335]	< 10 µM	11180	4.2 µM	

Compound	EC50 (mu-opioid receptor (MOR); EC50, CHO-K1/MOR/Gα15 cells)	FLIPR Ca^2+ AUC (mu-opioid receptor (MOR))	EC50 (mu-opioid receptor (MOR); read-out: FLIPR Ca^2+ EC50)	other results
Cc1c(N2C(=O)CSC2c2ccccc2F)c(=O)n(-c2ccccc2)n1C (stereo not drawn) [Example 406]		9974	31.2 µM	AUC (mu-opioid receptor (MOR)): more than 5000
Cc1cc(C(=O)OCCOCCN2CCCC2)ccc1N1C(=O)CSC1c1ccc(F)cc1 (stereo not drawn) [Example 307]	< 10 µM	14731	8.7 µM	AUC (mu-opioid receptor (MOR)): more than 5000
CCOC(=O)OC(C)OC(=O)c1ccc(N2C(=O)CSC2c2ccc(F)cc2)c(C)c1 (stereo not drawn) [Example 313, 3-(1,5-Dimethyl-3-oxo-2-phenyl-2,3-dihydro-1H-pyrazol-4-yl)-2-(4-(methylthi)phenyl)thiazolidin-4-one]	< 10 µM			
CC(=O)N1CCC(CCOC(=O)c2ccc(N3C(=O)CSC3c3ccc(F)cc3)c(C)c2)CC1 (stereo not drawn) [Example 299]		10053	5 µM	
Cc1cc(C(=O)NCc2cc(F)cc(F)c2)ccc1N1C(=O)CSC1c1ccc(F)cc1 (stereo not drawn) [Example 381]	< 10 µM	6035	8.2 µM	AUC (mu-opioid receptor (MOR)): more than 5000
Cc1cc(C(=O)OCc2oc(=O)oc2C)ccc1N1C(=O)CSC1c1ccc(F)cc1 (stereo not drawn) [Example 311]	< 10 µM			
Cc1cc(C(=O)NS(=O)(=O)c2ccccc2)ccc1N1C(=O)CSC1c1ccc(F)cc1 (stereo not drawn) [Example 183]	< 10 µM	12230	1.9 µM	AUC (mu-opioid receptor (MOR)): more than 5000
Cc1ccc(N2C(=O)CSC2c2ccc(F)cc2)c(C)c1 (stereo not drawn) [Example 102]	< 10 µM			
CNC(=O)c1ccc(N2C(=O)CSC2c2ccc(F)cc2)c(C)c1 (stereo not drawn) [Example 331]	< 10 µM			
Cc1cc(C(=O)O)ccc1N1C(=O)CSC1c1ccc(Cl)cc1 (stereo not drawn) [Example 84]	< 10 µM	5509	7.2 µM	AUC (mu-opioid receptor (MOR)): more than 5000
Cc1cc(C(=O)NCCc2cccc(F)c2)ccc1N1C(=O)CSC1c1ccc(F)cc1 (stereo not drawn) [Example 385]		7501	3.9 µM	
Cc1cc(C(=O)OCC2CCCC2)ccc1N1C(=O)CSC1c1ccc(F)cc1 (stereo not drawn) [Example 239]	< 10 µM	4342	9.4 µM	
Cc1cc(C(=O)NCc2cc(F)ccc2F)ccc1N1C(=O)CSC1c1ccc(F)cc1 (stereo not drawn) [Example 376]		8823	1 µM	
Cc1ccc(F)cc1N1C(=O)CSC1c1cccc(F)c1 (stereo not drawn) [Example 113]	< 10 µM			
Cc1cc(C(=O)NCCCN(C)C)ccc1N1C(=O)CSC1c1ccc(F)cc1 (stereo not drawn) [Example 342]		16741	3.3 µM	
Cc1cc(C(=O)NCCCN2CCOCC2)ccc1N1C(=O)CSC1c1ccc(F)cc1 (stereo not drawn) [Example 347]		12967	8.2 µM	
Cc1cc(C(=O)NC2CC2)ccc1N1C(=O)CSC1c1ccc(F)cc1 (stereo not drawn) [Example 336]		11347	11 µM	
Cc1cc(C(=O)OCCOCc2ccccc2)ccc1N1C(=O)CSC1c1ccc(F)cc1 (stereo not drawn) [Example 258]	< 10 µM	6353	3.3 µM	AUC (mu-opioid receptor (MOR)): more than 5000
COc1ccc(N2C(=O)CSC2c2ccc(F)cc2)c(C)c1 (stereo not drawn) [Example 47]	< 10 µM			
Cc1cc(-c2nnc(C(F)(F)F)o2)ccc1N1C(=O)CSC1c1ccc(F)cc1 (stereo not drawn) [Example 228]		7035	8.6 µM	
Cc1cc(C(O)C(F)(F)F)ccc1N1C(=O)CSC1c1ccc(F)cc1 (stereo not drawn) [Example 600, 2-(4-Fluorophenyl)-3-[2-methyl-4-(2,2,2-trifluoro-1-hydroxyethyl)phenyl]-1,3-thiazolidin-4-one]	< 10 µM	13110	6.75 µM	AUC (mu-opioid receptor (MOR)): more than 5000
Cc1cc(C(=O)OC(C)CNC(=O)c2cccnc2)ccc1N1C(=O)CSC1c1ccc(F)cc1 (stereo not drawn) [Example 326]	< 10 µM			
